This passage reports Emax, EC50 and IC50 results from US20130203730A1, “BENZOTHIAZOLES AS GHRELIN RECEPTOR MODULATORS” (AstraZeneca AB, priority 2007, published 2013).

The structures appear in SMILES notation.

Assay [1] addresses T1, human GHS receptor (Homo sapiens, UniProt Q92847).
T1 construct: expressed in transfected cells
Kind of assay: Ghrelin IP1 agonist assay (IP1 HTRF) in HEK293s cells expressing human GHS receptor. The assay is classed as cell-based. As for the experimental part:
In HEK293s cells stably expressing human GHS receptor (In-house), agonist activity was assessed by measuring intracellular myo-Inositol 1 phosphate (IP1) using the IP1 HTRF assay kit (Cisbio International).
Cells were harvested using accutase (Sigma), spun down at 1000 rpm for 5 minutes and resuspended in stimulation buffer (as above) containing 0.02% fatty acid free BSA at a density of 1.43E6 cells/ml.

For assay [2], the target named is T1, human GHS receptor. Kind of assay: h bind IC50 (binding assay, hBindingIC50).

T1 sequence (Q92847 whole entry): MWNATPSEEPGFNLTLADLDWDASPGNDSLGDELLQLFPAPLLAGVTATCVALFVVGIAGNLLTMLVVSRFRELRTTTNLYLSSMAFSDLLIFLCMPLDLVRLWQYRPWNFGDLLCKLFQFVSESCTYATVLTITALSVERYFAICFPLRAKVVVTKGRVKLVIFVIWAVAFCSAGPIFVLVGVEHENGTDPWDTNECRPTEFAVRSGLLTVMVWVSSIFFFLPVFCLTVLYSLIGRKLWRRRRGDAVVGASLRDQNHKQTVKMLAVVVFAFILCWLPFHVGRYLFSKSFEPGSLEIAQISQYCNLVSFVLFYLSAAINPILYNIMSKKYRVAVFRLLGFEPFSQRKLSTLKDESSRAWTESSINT

As for `CCS(=O)(=O)c1ccccc1C(=O)NC(=O)Nc1nc2ccc(S(C)(=O)=O)cc2s1` [Example 135, 2-Ethylsulfonyl-N-[(6-methylsulfonylbenzothiazol-2-yl)carbamoyl]benzamide], the Emax at human GHS receptor [1] (HEK293S, 2 h, agonist effect as % maximal effect of GHRP-6 (5 μM), read-out: h IP1 ag %) was 18.2%. Besides, on human GHS receptor [1] (HEK293s cells stably expressing human GHS receptor, read-out: h IP1 ag EC50), the EC50 amounted to 3680 nM. At human GHS receptor [2], this compound registered an IC50 of 2220 nM.
